From US5731309A, “Substituted heteroalkyleneamine neurokinin antagonists” (Zeneca Limited, priority 1994, dated 1998)
pKi: −log10 of the molar value.

What was measured:
human NK1 receptor = biological target: T1, human NK1 receptor (Homo sapiens, UniProt P25103); test: SP Receptor Binding Assay (Test A); conditions: antagonism of SP binding; human NK1 receptor expressed in MEL cells
T1 construct: expressed in transfected cells; host or cells: Mouse Erythroleukemia (MEL) cells
Source text: SP Receptor Binding Assay (Test A)
The human NK1 receptor was isolated and characterized as described in: B. Hopkins, et al. "Isolation and characterization of the human lung NK1 receptor cDNA" Biochem. Biophys. Res. Comm., 1991, 180, 1110-1117; and the NK1 receptor was expressed in Mouse Erythroleukemia (MEL) cells using a procedure similar to that described in Test B below.

human NK2 receptor = biological target: T2, human NK2 receptor (Homo sapiens, UniProt P21452); test: Neurokinin A (NKA) Receptor Binding Assay (Test B); conditions: antagonism of NKA binding; human NK2 receptor expressed in MEL cells
T2 construct: expressed in transfected cells; host or cells: Mouse Erythroleukemia (MEL) cells
T2 sequence (P21452 1-398): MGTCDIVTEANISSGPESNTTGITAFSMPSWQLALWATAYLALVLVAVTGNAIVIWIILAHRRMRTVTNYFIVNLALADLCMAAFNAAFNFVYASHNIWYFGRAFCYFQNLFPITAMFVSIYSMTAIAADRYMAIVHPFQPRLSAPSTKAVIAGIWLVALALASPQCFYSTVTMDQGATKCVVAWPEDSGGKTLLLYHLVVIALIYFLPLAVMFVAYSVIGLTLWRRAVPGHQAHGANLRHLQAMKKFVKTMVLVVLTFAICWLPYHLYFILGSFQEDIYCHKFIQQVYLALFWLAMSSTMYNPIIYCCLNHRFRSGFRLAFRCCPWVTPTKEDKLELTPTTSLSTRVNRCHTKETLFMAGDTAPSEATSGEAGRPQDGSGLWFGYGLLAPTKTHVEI
Source text: Neurokinin A (NKA) Receptor Binding Assay (Test B)

NK1 receptor = biological target: T3, NK1 receptor (Oryctolagus cuniculus, UniProt G1SEI7); test: Rabbit Pulmonary Artery: NK1 in vitro functional assay (Test C); set-up: species or system rabbit (male New Zealand white); conditions: -log molar KB, agonist ASMSP, read-out: pKB in Test C (converted)
T3 construct: The left and right branches of the pulmonary artery are isolated from the rest of the lung tissue; from tissue; host or cells: rabbit (male New Zealand white) pulmonary artery ring segments with intact endothelium
T3 sequence (G1SEI7 1-407): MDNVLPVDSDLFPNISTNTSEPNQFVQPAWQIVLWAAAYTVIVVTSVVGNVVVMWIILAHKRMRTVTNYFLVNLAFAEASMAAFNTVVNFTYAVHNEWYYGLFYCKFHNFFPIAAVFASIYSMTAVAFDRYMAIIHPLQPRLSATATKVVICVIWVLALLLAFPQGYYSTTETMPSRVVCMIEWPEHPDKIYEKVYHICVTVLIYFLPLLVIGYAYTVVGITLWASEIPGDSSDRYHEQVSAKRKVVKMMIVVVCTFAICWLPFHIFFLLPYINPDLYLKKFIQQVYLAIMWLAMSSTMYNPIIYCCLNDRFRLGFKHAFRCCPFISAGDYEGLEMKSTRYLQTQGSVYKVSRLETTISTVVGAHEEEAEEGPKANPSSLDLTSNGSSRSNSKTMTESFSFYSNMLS
Method: Rabbit Pulmonary Artery: NK1 in vitro functional assay (Test C)
Male New Zealand white rabbits are killed by lethal injection (Nembutal, 60 mg/kg into a cannulated ear vein). Heparin, 0.0025 ml/kg of a 1000 U/ml solution, is injected into the ear vein prior to nembutal in order to decrease blood coagulation. The left and right branches of the pulmonary artery are isolated from the rest of the lung tissue and cut in half to provide four ring segments from each animal. […] Changes in tension are measured on a Grass polygraph via Grass FT-03 force transducers. […]
Potencies of the compounds are determined by calculating the apparent dissociation constants (KB) for each concentration tested using the standard equation: […]
where dose ratio=antilog[(agonist-log molar EC50 without compound)-(agonist-log molar EC50 with compound)]. The KB values are converted to the negative logarithms and expressed as -log molar KB (i.e. pKB). […] The EC50 values are converted to negative logarithms and expressed as -log molar EC50. Maximum relaxation responses to ASMSP are determined by expressing the maximum response to the agonist as a percentage of the relaxation caused by papaverine.

NK2 receptor = biological target: T4, NK2 receptor (Cavia porcellus, UniProt Q64077); test: Guinea Pig Trachea Assay: NK2 in vitro functional assay (Test D); conditions: -log molar KB, agonist BANK, read-out: pKB in Test D (converted)
T4 construct: The trachea are removed, trimmed of excess tissue (including removal of epithelium) and cut in spiral fashion; from tissue; host or cells: guinea pig trachea strips, epithelium removed
T4 sequence (Q64077 1-402): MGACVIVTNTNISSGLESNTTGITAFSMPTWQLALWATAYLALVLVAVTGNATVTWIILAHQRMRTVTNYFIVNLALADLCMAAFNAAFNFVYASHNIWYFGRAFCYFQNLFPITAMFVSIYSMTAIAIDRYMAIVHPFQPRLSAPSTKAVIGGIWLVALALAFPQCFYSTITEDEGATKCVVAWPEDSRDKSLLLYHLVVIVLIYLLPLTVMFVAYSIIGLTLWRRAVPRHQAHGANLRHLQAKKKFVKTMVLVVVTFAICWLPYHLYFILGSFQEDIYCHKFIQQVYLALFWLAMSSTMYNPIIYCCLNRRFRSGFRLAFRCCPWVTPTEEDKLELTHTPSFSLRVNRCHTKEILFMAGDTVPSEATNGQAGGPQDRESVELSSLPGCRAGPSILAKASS
Method: Guinea Pig Trachea Assay: NK2 in vitro functional assay (Test D)
Male guinea pigs are killed by a sharp blow to the back of the head followed by exsanguination. The trachea are removed, trimmed of excess tissue (including removal of epithelium) and cut in spiral fashion. Each longitudinally cut tracheal segment is suspended as a strip in a water-jacketed (37.5° C.) tissue bath containing a physiological salt solution of the following composition (mM): NaCl, 119; KCl 4.6; CaCl2, 1.8; MgCl2, 0.5; NaH2 PO4, 1; NaHCO3, 25; glucose, 11; and indomethacin, 0.005 (to inhibit cyclooxygenase); gassed continuously with 95% O2-%5 CO2. […] Contractile responses are measured on a Grass polygraph via Grass FT-03 force transducers. […]
Potencies of the compounds are evaluated by calculating apparent dissociation constants (KB) for each concentration tested using the standard equation: […]
where dose ratio=antilog[(agonist -log molar EC50 without compound)-(agonist-log molar EC50 with compound)]. The KB values are converted to the negative logarithms and expressed as -log molar KB (i.e. pKB). […] The EC50 values are converted to the negative logarithms and expressed as -log molar EC50. Maximum contractile responses to BANK are determined by expressing the maximum response to BANK as a percentage of the initial contraction caused by capasacin.

T1 sequence (P25103 whole entry): as the sequence (G1SEI7 1-407) above, with F12S, D189N, A369P, E371D, N376T, G386C, N391D, Y402S, M405V counted along it

pKi (human NK1 receptor) | pKi (human NK2 receptor) | Kb (NK1 receptor) [nM] | Kb (NK2 receptor) [nM] | Structure (SMILES)
6.37 | 7.89 | – | – | CC(=O)NC1(c2ccccc2)CCN(CCC(CNCCc2ccccc2)c2ccc(Cl)c(Cl)c2)CC1 (stereo not shown) [Example 3, 4-(4-acetamido-4-phenylpiperidino)-2-(3,4-dichlorophenyl)-N-(phenethyl)butylamine]
– | – | 955 | 3160 | CC(=O)NC1(c2ccccc2)CCN(CCC(CN(Cc2cc(C(F)(F)F)cc(C(F)(F)F)c2)C(C)=O)c2ccc(Cl)c(Cl)c2)CC1 (stereo not shown) [Example 10, 4-(4-Acetamido-4-phenylpiperidino)-N-acetyl-2-(3,4-dichlorophenyl)-N-[3,5-bis(trifluoromethyl)benzyl]butylamine]
